# Results: US9321795B2, “Use of hydroxycinnamaldehyde glycoside derivatives for treating glomerulonephritis” (National Defense Medical Center, priority 2014, dated 2016)
# Legend:
# caspase-1 [1] = experiment: Real-time PCR of kidney tissue, caspase-1; format: in vivo, mouse; details: LPS induced GN mice, i.p. daily 30 mg/ml, 7 weeks, FIG. 5(A)-(D)
# Experimental: (§1) Experiments were performed on 8-week-old female C57BL/6 mice. The mice were separated into 3 groups at 8-weeks old. One of the groups were injected intravenously with normal saline to be used as normal controls, where the pathological control group and the GN disease treatment group by the cinnamaldehyde derivative of the invention were intraperitoneally injected with […] Salmonella LPS (Sigma, USA) (Am J Physiol Renal Physiol, 296: F1088-1099, 2009; Nephron, 84: 167-176, 2000; Nephron Exp Nephrol, 112: e81-91, 2009) twice a week, continuously for 7 weeks for disease induction. Starting two days before disease induction, the GN disease treatment group was intraperitoneally injected with the cinnamaldehyde derivative of the invention at a daily dose of 30 mg/ml for continuous 7 weeks, while the pathological control group was given placebo daily through intraperitoneal injection. Urine samples were collected in metabolic cages every week. Mice were sacrificed on 7th week after the disease induction. Blood, kidneys, spleen and liver were collected and stored properly for further analysis.
# (§2) RNA was extracted from kidney tissues, reverse transcribed to cDNA and Real-Time PCR (Applied Biosystems) was carried out. Items determined include: IL-6, NLRP3, caspase-1, IL-1β and IL-18, where GAPDH gene expression levels were used to carry out the internal correction.
# IL-1β [2] = experiment: Mature IL-1β in renal cortical protein (ELISA); format: in vivo, mouse; details: LPS induced GN mice, i.p. daily 30 mg/ml, 7 weeks, FIG. 5(H)
# Experimental: as §1
# (§3) ELISA reader (Bio-Tek, USA) was used to detect OD 450 nm absorption and the values were converted to sample concentration according to the standard curve.
# spleen cells = experiment: Flow cytometry of T cell and B cell activation in spleen cells; format: in vivo, mouse; details: LPS induced GN mice, i.p. daily 30 mg/ml, 7 weeks
# Experimental: as §1
# Mice spleens were taken out, grinded, rinsed and centrifuged to obtain spleen cells. To carry out mice inflammation reaction analysis, 1×10^6 cells were taken and reacted with anti-mouse CD3-FITC antibody, anti-mouse […] antibody anti-mouse CD8-PE, anti-mouse CD19-FITC antibody and anti-mouse CD69-PE antibody (all purchased from BD Pharmingen, CA) respectively in the dark under room temperature for 30 minutes, and analyzed with flow cytometry (Beckton Dickinson, Calif.).
# macrophage (F4/80) = experiment: Immunohistochemistry of kidney, macrophage marker F4/80; format: in vivo, mouse; details: LPS induced GN mice; i.p. daily 30 mg/ml, 7 weeks; IHC; vs GN disease group; FIG. 3(A),(D),(E)
# Experimental: as §1
# (§4) In addition, to carry out immunohistochemistry (IHC) analysis, tissue fixation, paraffin-embedding, sectioning, rehydration and antigen retrieval were done with routine procedures, and 3% H2O2 was used to remove endogenous peroxidase. […]
# [3] = test system: LPS induced mouse GN model; experiment: Urine protein and serum BUN (renal function) in LPS induced mouse GN model; format: in vivo; details: LPS induced GN C57BL/6 mice
# Experimental: as §1
# Serum blood urea nitrogen (BUN) and proteinuria were used to assess mice kidney function. Serum blood urea nitrogen (BUN) measurement of serum collected through the eye socket was done through a tester (Fuji DRI-CHEM 3000) with a test specimen (Fuju DRI-CHEM SLIDE). […]
# NF-κB = experiment: Immunohistochemistry of kidney, NF-κB expression; format: in vivo, mouse; details: LPS induced GN mice; i.p. daily 30 mg/ml, 7 weeks; IHC; FIG. 4(A),(B)
# Experimental: as §1, §4
# IL-18 = experiment: Real-time PCR of kidney tissue, IL-18; format: in vivo, mouse; details: LPS induced GN mice, i.p. daily 30 mg/ml, 7 weeks, FIG. 5(A)-(D)
# Experimental: as §1, §2
# NF-κB p65 = NF-κB p65 activity in kidney tissues (ELISA); format: in vivo, mouse; details: LPS induced GN mice, i.p. daily 30 mg/ml, 7 weeks, FIG. 4(C)
# Experimental: as §1, with “Blood, kidneys, spleen and liver were collected and stored properly for further analysis.” left out
# Renal cortical tissues were taken and extracted for nuclear protein with nucleus extraction kit (Active Motif, Japan), and nuclear proteins were taken to detect NF-κB p65 activity after protein quantitation. […] Lastly, ELISA reader (Bio-Tek, USA) was used to detect OD 450 nm absorption and the values were converted to sample concentration according to the standard curve.
# T cell (CD3) = experiment: Immunohistochemistry of kidney, T cell (CD3) infiltration; format: in vivo, mouse; details: LPS induced GN mice; i.p. daily 30 mg/ml, 7 weeks; IHC; FIG. 3(A),(B),(C)
# Experimental: as §1, §4
# NLRP3 = experiment: Real-time PCR of kidney tissue, NLRP3; format: in vivo, mouse; details: LPS induced GN mice, i.p. daily 30 mg/ml, 7 weeks, FIG. 5(A)-(D)
# Experimental: as §1, §2
# [4] = Drug safety by weekly weight change of mice; format: in vivo, mouse; details: LPS induced GN mice, i.p. daily 30 mg/ml, 7 weeks; for weight change of mice: recorded each week, compared to normal control group, FIG. 7
# Experimental: as §1
# During the experiment processes, the drug safety of the cinnamaldehyde derivative was assessed through recording the weight change of mice each week.
# TLR4 = experiment: Reverse-transcription PCR, TLR4 mRNA; format: in vivo, mouse; details: LPS induced GN mice, i.p. daily 30 mg/ml, 7 weeks, semi-quantitated, FIG. 6
# Experimental: as §1
# (§5) Reverse-transcription PCR was used to evaluate and semi-quantitate TLR4 and its following adaptin Myd88 mRNA expression. […]
# caspase-1 [5] = experiment: Western blot of renal cortical proteins, caspase-1; format: in vivo, mouse; details: LPS induced GN mice, i.p. daily 30 mg/ml, 7 weeks
# Experimental: as §1
# Renal cortical tissues were cut to pieces and placed in buffer, and grinding with sonication was used to lyse the cells. After centrifugation, the supernatant was preserved, and protein concentration was measured with protein concentration analyzing kit (BCA protein Assay Kit, PIERCE). […]
# IL-6 = IL-6 protein in kidney tissue (ELISA); format: in vivo, mouse; details: LPS induced GN mice, i.p. daily 30 mg/ml, 7 weeks, FIG. 4(D)
# Experimental: as §1, §3
# IL-1β [6] = experiment: Real-time PCR of kidney tissue, IL-1β; format: in vivo, mouse; details: LPS induced GN mice, i.p. daily 30 mg/ml, 7 weeks, FIG. 5(A)-(D)
# Experimental: as §1, §2
# MyD88 = experiment: Reverse-transcription PCR, MyD88 mRNA; format: in vivo, mouse; details: LPS induced GN mice, i.p. daily 30 mg/ml, 7 weeks, semi-quantitated, FIG. 6
# Experimental: as §1, §5
# glomeruli of GN mice = experiment: Renal histopathology (H&E) in LPS induced mouse GN model; format: in vivo; details: i.p. daily 30 mg/ml, 7 weeks, FIG. 2
# Experimental: as §1
# To evaluate the renal histological changes, 10% formalin was used to fix the tissues, and sections were prepared and stained with hematoxylin and eosin (H&E) and observed under microscope. Changes in the tissues were analyzed by semi-quantitation. Items evaluated include: (1) cell density changes in glomerulus; (2) glomerulus fibrosis; (3) cell necrosis in glomerulus; (4) formation of crescent of glomerulonephritis. According to the ratio of glomeruli having pathological changes, 0 to 4 points were given as scores. 25 glomeruli were measured for each group and the sum of the points represents the renal histological changes. Secondly, mesenchymal and renal tubular atrophy, erythrocyte and protein granule sedimentation in renal tubules and mesenchymal inflammation were also evaluated.
compound,measurement,setting,value
"O=CC=Cc1ccc(OC2OC(CO)C(O)C(O)C2O)cc1 (centres unmarked) [cinnamaldehyde derivative, 4-hydroxyphenylacrylaldehyde glycoside]",caspase-1 gene expression level in kidney tissue,caspase-1 [1],significantly reduced
same,amount of mature IL-1β,IL-1β [2],significantly decreased
same,amount of mature IL-1β,IL-1β [2]; listed as hydroxycinammaldehde glycoside derivate,significantly increased in GN disease group compared to hydroxycinammaldehde glycoside derivate treated GN group
same,Helper T cells (CD4+) activation ratio in spleen cells,"spleen cells; ***p<0.005, FIG. 3(G)",significantly ameliorated
same,T cell (CD3+) activation in spleen cells,spleen cells; FIG. 3(F),showed the tendency of reduction
same,B cell (CD19+) activation in spleen cells,spleen cells; FIG. 3(H),no significant difference
same,macrophage (F4/80) staining in kidney,macrophage (F4/80),significantly less
same,serum blood urea nitrogen (BUN),"[3]; i.p. daily 30 mg/ml for 7 weeks, vs pathological control group, FIG. 1(B)",significantly lower
same,urine protein content (proteinuria),"[3]; i.p. daily dose of 30 mg/ml for 7 weeks, vs disease group, *p<0.05, FIG. 1(A)",reduce proteinuria
same,NF-κB expression in kidney tissue,NF-κB,reduce its expression level
same,IL-18 gene expression level in kidney tissue,IL-18,significantly reduced
same,NF-κB p65 content (activation) in renal cortical proteins,NF-κB p65,lower its activation level
same,T lymphocyte (CD3) infiltration in glomeruli,T cell (CD3),significantly lowered
same,NLRP3 gene expression level in kidney tissue,NLRP3,significantly reduced
same,side-effects in animals,[4]; judged from weight change,did not cause obvious side-effects
same,weight change of mice,[4]; listed as hydroxycinammaldehde glycoside derivative,does not result in weight loss
same,weight change of mice,[4]; listed as hydroxycinnamaldehyde derivative,stable increase in their bodyweight
same,TLR4 mRNA expression level,TLR4,reduced
same,matured caspase-1 expression level,caspase-1 [5]; FIG. 5(E),higher in the disease group than in the cinnamaldehyde derivative treatment group
same,pro-caspase-1 expression level,caspase-1 [5]; FIG. 5(E)-(G),reduced
same,IL-6 protein expression level in kidney tissue,IL-6,reduce IL-6 expression
same,IL-1β gene expression level in kidney tissue,IL-1β [6],significantly reduced
same,MyD88 mRNA expression level,MyD88,reduced
same,glomerular fibrosis,glomeruli of GN mice,no fibrosis condition occurrence was observed
same,glomerular proliferation,glomeruli of GN mice,significantly ameliorated
same,lymphocyte infiltration,glomeruli of GN mice,reduced
